Assay [1] concerns the target FAM-TAR RNA. The assay can be described thus: Quenching of FAM-TAR RNA by DABCYL-labelled ADP-1. Conditions: 20 nM FAM-TAR, FIG. 19. The assay is classed as binding, HIV. On the procedure: It is also possible to place a fluorescent group on the RNA target and a quenching group on the reporter molecule. […] The DABCYL-ADP-1 was pre-treated in the presence of 1% TFA at room temperature for 5 minutes prior to dilution into binding buffer (0.01% Triton X-100, 5 μg/ml BSA, 1% DMSO, 50 mM Tris-HCl pH 7.6, 20 mM KCl) and incubated on ice prior to complex formation.
Reactions were equilibrated at room temperature for 15 minutes prior to analysis in the Wallac Victor2 plate reader. The reactions were excited at 485 nm and fluorescence emission recorded at 535 nm. The fluorescence emission signal of the 20 nM FAM-TAR is progressively quenched after addition of increasing amounts of DABCYL-ADP-1 peptide. The experimental data shown in FIG. 19 was analysed in GraphPad PRISMTM using a non linear regression fit for single site binding.

The target in assay [2] is ss-19mer RNA. Nature of the assay: Dabcyl-peptide binding to Fam-labelled RNA (quenching), single stranded RNA. The conditions noted are these: ss-19mer, 110 mM KCl. The text has this:
(§1) A representative subset comprising 40 peptide sequences from the total of 243 possible sequences was synthesised and is shown in Table 6. The peptides from the library are: No. 3 (SEQ ID NO:11), 4 (SEQ ID NO:12), 5 (SEQ ID NO:13), 6 (SEQ ID NO:14), 7 (SEQ ID NO:15), 8 (SEQ ID NO:16), 9 (SEQ ID NO:17), 10 (SEQ ID NO:18), 11 (SEQ ID NO:19), 12 (SEQ ID NO:20), 13 (SEQ ID NO:21), 14 (SEQ ID NO:22), 15 (SEQ ID NO:23), 16 (SEQ ID NO:24), 17 (SEQ ID NO:25), 18 (SEQ ID NO:26), 19 (SEQ ID NO:27), 20 (SEQ ID NO:28), 21 (SEQ ID NO:29), 22 (SEQ ID NO:30), 23 (SEQ ID NO:31), 24 (SEQ ID NO:32), 25 (SEQ ID NO:33), 26 (SEQ ID NO:34), 27 (SEQ ID NO:35), 28 (SEQ ID NO:36), 29 (SEQ ID NO:37), 30 (SEQ ID NO:38), 31 (SEQ ID NO:39), 32 (SEQ ID NO:40), 33 (SEQ ID NO:41), 34 (SEQ ID NO:42), 35 (SEQ ID NO:43), 36 (SEQ ID NO:44), 37 (SEQ ID NO:45), 38 (SEQ ID NO:46), 39 (SEQ ID NO:47), 40 (SEQ ID NO:48), 41 (SEQ ID NO:49), 42 (SEQ ID NO:50). These peptides were assayed for their ability to bind to range of RNA sequences carrying fluorescein attached to the 5′ end, as shown in FIG. 25.
(§2) FIG. 26. presents binding data for the peptide sequence 5 (KKQKR) (SEQ ID NO: 13) and the 4 RNA sequences. Reactions (100 μl) containing Fam-labelled RNA (10 nM) were mixed with increasing concentrations of Dabcyl-labelled ADP-1 peptide (up to 250 nM) in 50 mM Tris/Cl, pH7.4, 20 mM or 110 mM KCl (as indicated), 5 μg/ml BSA, 0.01% Triton X-100, 1% DMSO. Fluorescence (excitation 490 nm/emission at 535 nm) was determined using a Victor plate reader.
(§3) Dissociation constants were determined by fitting a binding isotherm (1-site-binding) to the data using the equation:
(§4) Y=((Fmax−Fmin)−((Fmax−Fmin)*X/(Kd+X)))+Fmin
(§5) where Fmax is fluorescence in the absence of quencher, Fmin is fluorescence at saturation, and X is peptide concentration.

Assay [3] concerns the target RRE RNA. Nature of the assay: Dabcyl-peptide binding to Fam-labelled RNA (quenching), RRE. Also noted: species or system HIV. Conditions: RRE, 110 mM KCl.
Description: as §1, §2, §3, §4, §5

In assay [4] the target is TAR bulge RNA. The assay can be described thus: Dabcyl-peptide binding to Fam-labelled RNA (quenching), TAR. Details: species or system HIV. Conditions: 110 mM KCl.
Description: as §1, §2, §3, §4, §5

The target of assay [5] is GTPase-LHL RNA. Nature of the assay: Dabcyl-peptide binding to Fam-labelled RNA (quenching), GTPase LHL. Conditions: GTPase-LHL, 110 mM KCl.
Description: as §1, §2, §3, §4, §5

For assay [6], the target named is DABCYL-TAR RNA. The assay can be described thus: Quenching of TAMRA-labelled Rev peptide by DABCYL-TAR RNA. The assay is classed as binding, HIV. Conditions: 20 nM TAMRA-Rev, increasing DABCYL-TAR, FIG. 22. The protocol:
20 nM TAMRA-Rev was incubated with increasing concentrations of DABCYL-TAR. The TAMRA-Rev was pre-treated in the presence of 1% TFA at room temperature for 5 minutes prior to dilution into storage buffer (0.01% Triton X-100, 5 μg/ml BSA, 1% DMSO, 50 mM Tris-HCl pH 8, 50 mM KCl) and incubated on ice prior to complex formation. Reactions were equilibrated at room temperature for 15 minutes prior to analysis in the Wallac Victor2 plate reader. The reactions were excited at 544 nm and fluorescence emission recorded at 570 nm. The fluorescence emission signal of the 20 nM TAMRA-Rev alone was subtracted from each signal obtained in the presence of increasing amounts of DABCYL-TAR and plotted as a function of DABCYL-TAR concentration (FIG. 22) in GraphPad PRISMTM using a non linear regression fit for single site binding.

Assay [7] addresses DABCYL-RRE RNA. The assay can be described thus: Quenching of TAMRA-labelled Rev peptide by DABCYL-RRE RNA. The conditions noted are these: 20 nM TAMRA-Rev, increasing DABCYL-RRE, FIG. 21. The format is binding, HIV. The protocol: In the experiment shown in FIG. 21, 20 nM TAMRA-Rev was incubated with increasing concentrations of DABCYL-RRE. The TAMRA-Rev was pre-treated in the presence of 1% TFA at room temperature for 5 minutes prior to dilution in to storage buffer (0.01% Triton X-100, 5 μg/ml BSA, 1% DMSO, 50 mM Tris-HCl pH 8, 50 mM KCl) and incubated on ice prior to complex formation. Reactions were equilibrated at room temperature for 15 minutes prior to analysis in the Wallac Victor2 plate reader. The reactions were excited at 544 nm and fluorescence emission recorded at 570 nm. The fluorescence emission signal of the 20 nM TAMRA-Rev alone was subtracted from each signal obtained in the presence of increasing amounts of DABCYL-RRE and plotted as a function of DABCYL-RRE concentration (FIG. 21) in GraphPad PRISMTM using a non linear regression fit for single site binding.

Several values for one entry are separate records, joined by “and”; a condition that tells them apart may be missing. Equal values may be shown once. Ends that are not written are not given here. * marks the point of attachment. TAMRA = tetramethylrhodamine (fluorescent label); DABCYL = CN(C)c1ccc(/N=N/c2ccc(C(=O)*)cc2)cc1

As for “DABCYL-Phe-Thr-Thr-Lys-Ala-Leu-Gly-Ile-Ser-Tyr-Gly-Arg-Lys-Lys-Arg-Arg-Gln-Arg-Arg-Arg-Pro-Pro-Gln-Gly-Ser-Gln-Thr-His-Gln-Val-Ser-Leu-Ser-Lys-Gln ({DABCYL}-FTTKALGISYGRKKRRQRRRPPQGSQTHQVSLSKQ) [DABCYL-ADP-1]”, the Kd in assay [1] was 33 nM; in assay [2], 511 nM; in assay [3] it was 39 nM; in assay [4], 35 nM and 41 nM; in assay [5], 131 nM.
Take “TAMRA-Asp-Thr-Arg-Gln-Ala-Arg-Arg-Asn-Arg-Arg-Arg-Arg-Trp-Arg-Glu Arg-Gln-Arg ({TAMRA}-DTRQARRNRRRRWRERQR) [TAMRA-Rev]”: the Kd in assay [6] worked out at 11000 nM; in assay [7], 137 ± 23 nM.
